The values below come from patent US10000471B2, “Pyrazole P38 map kinase inhibitors” (Respivert Limited, priority 2010, dated 2018).

Data set [1] has as its target T1, p38 MAPKγ (MAPK12) (Homo sapiens, UniProt P53778).
T1 construct: purchased Invitrogen
T1 sequence (P53778 1-367): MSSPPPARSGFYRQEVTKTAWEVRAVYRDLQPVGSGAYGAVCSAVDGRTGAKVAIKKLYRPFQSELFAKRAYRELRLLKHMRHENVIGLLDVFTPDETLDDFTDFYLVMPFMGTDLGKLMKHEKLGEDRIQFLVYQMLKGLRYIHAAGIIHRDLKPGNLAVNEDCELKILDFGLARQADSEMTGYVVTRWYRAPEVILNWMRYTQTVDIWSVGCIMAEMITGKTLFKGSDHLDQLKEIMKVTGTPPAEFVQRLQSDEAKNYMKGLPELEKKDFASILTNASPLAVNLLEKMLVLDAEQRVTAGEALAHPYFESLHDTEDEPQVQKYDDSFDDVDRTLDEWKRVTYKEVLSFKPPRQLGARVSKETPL
Description: Enzyme inhibition assay (FRET, Z-LYTE), p38 MAPKγ. It is filed as biochemical. The following applies: read-out: Enzyme Inhibition IC50 p38γ. Put shortly:
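Recombinant phosphorylated p38 MAPKγ preincubated 2 h at RT with compound in HEPES buffer, then 2 μM FRET peptide and 100 μM ATP added for 1 h; protease development 1 h. Coumarin/fluorescein emission ratio gave phosphorylation; IC50 from concentration-response versus uninhibited control.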

Data set [2] addresses T2, p38 MAPKα isoform (MAPK14) (Homo sapiens, UniProt Q16539).
T2 construct: purchased Invitrogen
Description: Enzyme inhibition assay (FRET, Z-LYTE), p38 MAPKα via MAPKAP-K2 activation. It is filed as biochemical. As to conditions: read-out: Enzyme Inhibition IC50 p38α. Put shortly: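 Recombinant p38 MAPKα was preincubated with compound for 2 h at RT. Its activity was measured indirectly through activation/phosphorylation of downstream MAPKAP-K2, with a Z-LYTE FRET peptide read-out (coumarin/fluorescein ratio) after a 1 h development step. IC50 came from concentration-response curves of percent inhibition versus an uninhibited control.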

Data set [3] concerns TNFα release in THP-1 cells. As to the kind of experiment: LPS-induced TNFα release in THP-1 cells. It is filed as cell-based, human. As to conditions: Homo sapiens. Put shortly: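 Human monocytic THP-1 cells stimulated with 3 μg/mL E. coli LPS for 4 hr; supernatant TNFα measured by sandwich ELISA. Inhibition at each concentration versus vehicle control, IC50 from concentration-response curve.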

For data set [4], the system named is Differentiated U937 cells. As to the kind of experiment: Cell viability MTT assay. It is filed as cell-based, human. The following applies: negative = apparent increase in viability; for MTT Assay (Viability) 4 h d-U937, percentage loss of cell viability: 4 hr in 5% FCS; for MTT Assay (Viability) 24 h d-U937, percentage loss of cell viability: 24 h in 10% FCS. Put shortly:
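Differentiated U937 cells pre-incubated with compound either 4 hr in 5% FCS or 24 h in 10% FCS, then 1 hr MTT. Formazan dissolved in DMSO, absorbance at 550 nm. Percentage viability loss relative to 0.5% DMSO vehicle; apparent increases appear as negative percentages.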
On the technique in general: Tetrazolium assays rely on reduction of a dye to a coloured formazan, in cell work by metabolically active cells.

Data set [5] deals with IL-8 release in d-U937 cells. Description: LPS-induced IL-8 release in d-U937 cells. The following applies: Homo sapiens, dU937. It is filed as cell-based, human. Put shortly:
(§1)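 PMA-differentiated (100 ng/ml, 48–72 hr) U937 macrophage-type cells pre-incubated 2 hr with compound, then stimulated 4 hr with 0.1 μg/mL E. coli O111:B4 LPS; supernatant TNFα and IL-8 measured by sandwich ELISA. TNFα inhibition expressed relative to 10 μg/mL BIRB796, giving REC50; IL-8 inhibition versus vehicle, giving IC50.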

Data set [6] deals with TNFα release in d-U937 cells. Description: LPS-induced TNFα release in d-U937 cells. It is filed as cell-based, human. The following applies: Homo sapiens, dU937, relative to 10 μg/mL BIRB796, read-out: LPS/TNFα REC50 d-U937. Put shortly:
as §1

For data set [7], the system named is ICAM-1 induction in BEAS2B cells. As to the kind of experiment: Poly I:C-induced ICAM-1 induction in BEAS2B cells. It is filed as cell-based, human. As to conditions: Homo sapiens, BEAS-2B, read-out: PolyIC/ICAM1 IC50 BEAS2B. Put shortly: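 Human bronchial epithelial BEAS2B cells were pre-incubated with compound for 2 hr, then transfected with 1 μg/mL poly I:C. After 18 hr, surface ICAM-1 was measured by cell-based ELISA (OD450-655) and normalized to crystal violet cell counts (OD595). IC50 came from inhibition versus vehicle across the concentration-response curve.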

T2 sequence (Q16539 whole entry, canonical isoform): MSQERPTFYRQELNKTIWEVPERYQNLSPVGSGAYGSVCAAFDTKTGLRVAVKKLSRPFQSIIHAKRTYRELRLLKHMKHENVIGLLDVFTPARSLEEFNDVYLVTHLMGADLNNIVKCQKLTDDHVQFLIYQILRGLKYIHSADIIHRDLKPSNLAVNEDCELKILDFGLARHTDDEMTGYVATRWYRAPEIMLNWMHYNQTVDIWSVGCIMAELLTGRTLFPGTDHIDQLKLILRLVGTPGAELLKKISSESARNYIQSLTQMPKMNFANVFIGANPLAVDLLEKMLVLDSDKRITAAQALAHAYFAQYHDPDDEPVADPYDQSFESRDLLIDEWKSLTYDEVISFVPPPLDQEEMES

For the compound `COCC(=O)Nc1cc(Oc2ccc(NC(=O)Nc3cc(C(C)(C)C)nn3-c3ccc(C)cc3)c(Cl)c2C(F)(F)F)ccn1` [Example 37, N-(4-(4-(3-(3-tert-butyl-1-p-tolyl-1H-pyrazol-5-yl)ureido)-3-chloro-2-trifluoromethylphenoxy)pyridin-2-yl)-2-methoxyacetamide], the IC50 in data set [1] stood at 159 nM; in data set [2], 102 nM; in data set [3], 1.8 nM; in data set [5], 6.9 nM; in data set [7] it was 4 nM. Besides, the “MTT Assay (Viability) 4 h d-U937, percentage loss of cell viability” value in data set [4] was −0.4%. Further, in data set [4], the “MTT Assay (Viability) 24 h d-U937, percentage loss of cell viability” value was 24.7%. For the same compound, in data set [6], the EC50 came out at 1.9 nM.

For `COCC(=O)Nc1cc(Oc2cc(Cl)c(NC(=O)Nc3cc(C(C)(C)C)nn3-c3ccc(C)cc3)cc2F)ccn1` [Example 38, N-(4-(4-(3-(3-tert-butyl-1-p-tolyl-1H-pyrazol-5-yl)ureido)-5-chloro-2-fluorophenoxy)pyridin-2-yl)-2-methoxyacetamide], the IC50 was 35.9 nM in data set [1]; 63 nM in data set [2]; 3.7 nM in data set [3]; 160 nM in data set [5]; 24.8 nM in data set [7]. Moreover, in data set [4], the “MTT Assay (Viability) 4 h d-U937, percentage loss of cell viability” value amounted to 0.6%. The “MTT Assay (Viability) 24 h d-U937, percentage loss of cell viability” value in data set [4] came to 64.1%. Besides, the EC50 in data set [6] was determined as 54.1 nM.

`COCC(=O)Nc1cc(Oc2cc(Cl)c(NC(=O)Nc3cc(C(C)(C)C)nn3-c3ccc(C)cc3)cc2Cl)ccn1` [Example 39, N-(4-(4-(3-(3-tert-butyl-1-p-tolyl-1H-pyrazol-5-yl)ureido)-2,5-dichlorophenoxy)pyridin-2-yl)-2-methoxyacetamide]: the IC50 in data set [1] stood at 3470 nM; in data set [2] it was 11.5 nM; in data set [3], 9.6 nM; in data set [5], 108 nM; in data set [7], 109 nM. Further, the “MTT Assay (Viability) 4 h d-U937, percentage loss of cell viability” value in data set [4] is 6.5%. Besides, the “MTT Assay (Viability) 24 h d-U937, percentage loss of cell viability” value in data set [4] is reported as −3.0%. Besides, the EC50 in data set [6] is 27 nM.

As for `COCC(=O)Nc1cc(Oc2ccc(NC(=O)Nc3cc(C(C)(C)C)nn3-c3ccc(C)cc3)c3ncccc23)ccn1` [Example 40, N-(4-(8-(3-(3-tert-butyl-1-p-tolyl-1H-pyrazol-5-yl)ureido)quinolin-5-yloxy)pyridin-2-yl)-2-methoxyacetamide], the IC50 in data set [1] came to 189 nM; in data set [2], 0.3 nM; in data set [3] it was 0.7 nM; in data set [5], 2 nM; in data set [7] it was 16.6 nM. For the same compound, in data set [4], the “MTT Assay (Viability) 4 h d-U937, percentage loss of cell viability” value is given as −10.7%. Moreover, the “MTT Assay (Viability) 24 h d-U937, percentage loss of cell viability” value in data set [4] was 28.4%. Besides, in data set [6], the EC50 turned out to be 1.6 nM.

Take `COCC(=O)Nc1cc(Oc2ccc(NC(=O)Nc3cc(C(C)(C)C)nn3-c3ccc(O)cc3)c(Cl)c2Cl)ccn1` [Example 41, N-(4-(4-(3-(3-tert-butyl-1-(4-hydroxyphenyl)-1H-pyrazol-5-yl)ureido)-2,3-dichlorophenoxy)pyridin-2-yl)-2-methoxyacetamide]: the IC50 in data set [1] is 46.5 nM; in data set [2], 54.9 nM; in data set [3], 0.3 nM; in data set [5], 1.6 nM; in data set [7], 1.4 nM. Further, the “MTT Assay (Viability) 4 h d-U937, percentage loss of cell viability” value in data set [4] is −24.0%. In addition, the “MTT Assay (Viability) 24 h d-U937, percentage loss of cell viability” value in data set [4] came to 76.5%. Also, the EC50 in data set [6] is 0.2 nM.

In the case of `CNCC(=O)Nc1cc(Oc2ccc(NC(=O)Nc3cc(C(C)(C)C)nn3-c3ccc(OC)cc3)c(Cl)c2Cl)ccn1` [Example 42, N-(4-(4-(3-(3-tert-butyl-1-(4-methoxyphenyl)-1H-pyrazol-5-yl)ureido)-2,3-dichlorophenoxy)pyridin-2-yl)-2-(methylamino)acetamide], the IC50 in data set [1] came to 28 nM; in data set [2], 14.6 nM; in data set [3] it was 0.7 nM; in data set [5], 1.1 nM; in data set [7] it was 3.1 nM. Also, the “MTT Assay (Viability) 4 h d-U937, percentage loss of cell viability” value in data set [4] is reported as −4.4%. In addition, in data set [4], the “MTT Assay (Viability) 24 h d-U937, percentage loss of cell viability” value turned out to be 67.9%. The EC50 in data set [6] came out at 1.3 nM.

For `COc1ccc(-n2nc(C(C)(C)C)cc2NC(=O)Nc2ccc(Oc3ccnc(NC(=O)CN(C)C)c3)c(Cl)c2Cl)cc1` [Example 43, N-(4-(4-(3-(3-tert-butyl-1-(4-methoxyphenyl)-1H-pyrazol-5-yl)ureido)-2,3-dichlorophenoxy)pyridin-2-yl)-2-(dimethylamino)acetamide], the IC50 amounted to 78.1 nM in data set [1]; 27.5 nM in data set [2]; 0.4 nM in data set [3]; 1.3 nM in data set [5]; 2.3 nM in data set [7]. Moreover, in data set [4], the “MTT Assay (Viability) 4 h d-U937, percentage loss of cell viability” value is recorded as −18.7%. Further, in data set [4], the “MTT Assay (Viability) 24 h d-U937, percentage loss of cell viability” value amounted to 79.1%. Moreover, in data set [6], the EC50 came to 0.9 nM.

As for `COCC(=O)Nc1cc(Oc2ccc(NC(=O)Nc3cc(C(C)(C)C)nn3-c3ccc(OC)cc3)c(Cl)c2Cl)ccn1` [Example 44, N-(4-(4-(3-(3-tert-butyl-1-(4-methoxyphenyl)-1H-pyrazol-5-yl)ureido)-2,3-dichlorophenoxy)pyridin-2-yl)-2-methoxyacetamide], the IC50 in data set [1] is 48.4 nM; in data set [2], 7.9 nM; in data set [3], 1.8 nM; in data set [5] it was 20.7 nM; in data set [7] it was 0.9 nM. For the same compound, the “MTT Assay (Viability) 4 h d-U937, percentage loss of cell viability” value in data set [4] is −25.9%. In addition, in data set [4], the “MTT Assay (Viability) 24 h d-U937, percentage loss of cell viability” value was 87.1%. Moreover, in data set [6], the EC50 is 2.2 nM.

`COc1ccc(-n2nc(C(C)(C)C)cc2NC(=O)Nc2ccc(Oc3ccnc(NC(=O)CN4CCOCC4)c3)c(Cl)c2Cl)cc1` [Example 45, N-(4-(4-(3-(3-tert-butyl-1-(4-methoxyphenyl)-1H-pyrazol-5-yl)ureido)-2,3-dichlorophenoxy)pyridin-2-yl)-2-morpholinoacetamide]: the IC50 was found to be 84.7 nM in data set [1]; 27.4 nM in data set [2]; 0.8 nM in data set [3]; 1 nM in data set [5]; 9 nM in data set [7]. The “MTT Assay (Viability) 4 h d-U937, percentage loss of cell viability” value in data set [4] is given as −4.8%. Besides, in data set [4], the “MTT Assay (Viability) 24 h d-U937, percentage loss of cell viability” value is on record as 56.2%. Further, the EC50 in data set [6] stood at 0.7 nM.

Turning to `CN(C)CC(=O)Nc1cc(Oc2ccc(NC(=O)Nc3cc(C(C)(C)C)nn3-c3ccc(CO)cc3)c(Cl)c2Cl)ccn1` [Example 46, N-(4-(4-(3-(3-tert-butyl-1-(4-hydroxymethylphenyl)-1H-pyrazol-5-yl)ureido)-2,3-dichlorophenoxy)pyridin-2-yl)-2-(dimethylamino) acetamide], the IC50 turned out to be 38.7 nM in data set [1]; 20.9 nM in data set [2]; 0.3 nM in data set [3]; 1.1 nM in data set [5]; 2.4 nM in data set [7]. In addition, the “MTT Assay (Viability) 4 h d-U937, percentage loss of cell viability” value in data set [4] was −12.6%. In addition, the “MTT Assay (Viability) 24 h d-U937, percentage loss of cell viability” value in data set [4] worked out at 82.7%. For the same compound, the EC50 in data set [6] was found to be 0.9 nM.

Consider `CN(C)CCCC(=O)Nc1cc(Oc2ccc(NC(=O)Nc3cc(C(C)(C)C)nn3-c3ccc(CO)cc3)c(Cl)c2Cl)ccn1` [Example 47, N-(4-(4-(3-(3-tert-butyl-1-(4-hydroxymethylphenyl)-1H-pyrazol-5-yl)ureido)-2,3-dichlorophenoxy)pyridin-2-yl)-4-(dimethylamino) butanamide], for which the IC50 in data set [1] is 5.9 nM; in data set [2], 2.2 nM; in data set [3], 0.5 nM; in data set [5], 8.2 nM; in data set [7], 6.4 nM. Besides, the “MTT Assay (Viability) 4 h d-U937, percentage loss of cell viability” value in data set [4] is listed as −42.5%. The “MTT Assay (Viability) 24 h d-U937, percentage loss of cell viability” value in data set [4] turned out to be 85.0%. For the same compound, in data set [6], the EC50 worked out at 1.6 nM.
